Legend:
[1] = biological target: NA from Virus H5N1 (soluble viral NA, N1) (Influenza A virus, UniProt Q6DPL2); assay: biochemical; conditions: IC50 inhibition of soluble NA from Virus H5N1
[2] = biological target: NA from Virus H3N2 (soluble viral NA, N2) (Influenza A virus, UniProt Q91MA2); assay: biochemical; conditions: IC50 inhibition of soluble NA from Virus H3N2
Sequence of NA from Virus H3N2 (soluble viral NA, N2) (Q91MA2 31-469 limits assumed): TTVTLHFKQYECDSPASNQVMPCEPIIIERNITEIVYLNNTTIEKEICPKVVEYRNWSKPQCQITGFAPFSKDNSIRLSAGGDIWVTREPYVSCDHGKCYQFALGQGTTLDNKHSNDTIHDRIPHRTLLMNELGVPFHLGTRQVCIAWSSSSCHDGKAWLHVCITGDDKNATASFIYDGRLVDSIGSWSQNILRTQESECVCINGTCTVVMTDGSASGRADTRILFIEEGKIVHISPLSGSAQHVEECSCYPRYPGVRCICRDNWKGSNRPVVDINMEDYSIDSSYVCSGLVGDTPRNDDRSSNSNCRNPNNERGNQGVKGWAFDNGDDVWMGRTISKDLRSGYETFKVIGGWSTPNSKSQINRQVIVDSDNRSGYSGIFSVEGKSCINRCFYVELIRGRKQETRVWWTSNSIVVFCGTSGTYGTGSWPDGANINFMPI

Sequence of NA from Virus H5N1 (soluble viral NA, N1) (Q6DPL2 35-449 limits assumed): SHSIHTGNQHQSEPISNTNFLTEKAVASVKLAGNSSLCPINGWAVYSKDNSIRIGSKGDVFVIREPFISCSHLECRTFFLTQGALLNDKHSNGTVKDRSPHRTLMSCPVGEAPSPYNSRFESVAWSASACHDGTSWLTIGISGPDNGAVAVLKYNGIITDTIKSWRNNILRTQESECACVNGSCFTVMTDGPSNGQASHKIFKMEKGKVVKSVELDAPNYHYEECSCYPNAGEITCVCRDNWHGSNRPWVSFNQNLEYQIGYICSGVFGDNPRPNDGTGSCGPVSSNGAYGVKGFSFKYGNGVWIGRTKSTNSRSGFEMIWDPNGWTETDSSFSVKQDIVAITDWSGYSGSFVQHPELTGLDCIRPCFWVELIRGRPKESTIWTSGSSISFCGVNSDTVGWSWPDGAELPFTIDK

Compound	IC50 [1] [µM]	IC50 [2] [µM]
CC(=O)N[C@H]1[C@H]([C@H](O)[C@H](O)CO)OC(SCCOCCOCCOCCOCCOCCSC2(C(=O)O)C[C@H](N)[C@@H](NC(C)=O)[C@H]([C@H](O)[C@H](O)CO)O2)(C(=O)O)C[C@@H]1N (stereo partly shown) [HexaEG-SA]	0.57 ± 0.06	11 ± 2
CC(=O)N[C@H]1[C@H]([C@H](O)[C@H](O)CO)OC(SCCOCCOCCOCCOCCSC2(C(=O)O)C[C@H](N)[C@@H](NC(C)=O)[C@H]([C@H](O)[C@H](O)CO)O2)(C(=O)O)C[C@@H]1N (stereo partly shown) [PentaEG-SA]	1.1 ± 0.1	10 ± 2
CC(=O)N[C@H]1[C@H]([C@H](O)[C@H](O)CO)OC(SCCCCCCS)(C(=O)O)C[C@@H]1N (stereo partly shown) [SA]	60 to 180	60 to 180
CC(=O)N[C@H]1[C@H]([C@H](O)[C@H](O)CO)OC(SCCCCCCS)(C(=O)O)C[C@@H]1NC(=N)N (stereo partly shown) [SG]	0.1 ± 0.02	
